{
  "source": "patent US20230210937A1",
  "about": "“COMPOSITIONS AND METHODS FOR THE TREATMENT AND/OR PROPHYLAXIS OF DIABETES AND OTHER CONDITIONS” (LIFELOCK BIOSCIENCE SOLUTIONS INC., priority 2019, published 2023)",
  "origin": "cited, not measured here",
  "key": {"[1]": {"system": "colon cancer cell line Caco-2"}, "PAK1": {"molecular_target": "PAK1 (Rattus norvegicus, UniProt P35465)", "sequence (P35465 2-544 limits assumed)": "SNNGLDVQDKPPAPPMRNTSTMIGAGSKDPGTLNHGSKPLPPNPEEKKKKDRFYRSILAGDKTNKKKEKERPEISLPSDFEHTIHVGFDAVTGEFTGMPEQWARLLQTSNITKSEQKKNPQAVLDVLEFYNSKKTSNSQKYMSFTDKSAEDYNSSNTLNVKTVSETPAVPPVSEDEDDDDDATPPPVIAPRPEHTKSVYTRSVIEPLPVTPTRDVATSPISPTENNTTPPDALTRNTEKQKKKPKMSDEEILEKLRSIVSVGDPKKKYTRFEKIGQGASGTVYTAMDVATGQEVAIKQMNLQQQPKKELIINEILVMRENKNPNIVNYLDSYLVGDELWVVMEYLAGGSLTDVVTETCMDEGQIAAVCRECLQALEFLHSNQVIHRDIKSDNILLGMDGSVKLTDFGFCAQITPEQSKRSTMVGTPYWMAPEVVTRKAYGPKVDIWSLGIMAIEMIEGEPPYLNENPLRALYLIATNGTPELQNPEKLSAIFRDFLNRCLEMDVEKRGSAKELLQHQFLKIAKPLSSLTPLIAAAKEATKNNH", "conditions": "skeletal muscle cells, co-immunoprecipitation"}, "mTORC1": {"molecular_target": "mTORC1 (Homo sapiens, UniProt P42345)"}, "[2]": {"conditions": "Caco-2, 100 ng/mL PMA, 2.5 mM IP6"}},
  "data": [
    {"smiles": "O=P(O)(O)OC1C(OP(=O)(O)O)C(OP(=O)(O)O)C(OP(=O)(O)O)C(OP(=O)(O)O)C1OP(=O)(O)O", "note": "[IP6, (1R,2S,3R,4R,5S,6s)-cyclohexane-1,2,3,4,5,6-hexayl hexakis[dihydrogen (phosphate)]]", "values": [
      {"measurement": "MMP-1 expression, PMA and IP6 in comparison to PMA-stimulated cells", "setting": "[1]; [2]", "result": "significant decrease"},
      {"measurement": "MMP-9 transcription induced by PMA", "setting": "[1]; [2]", "result": "down-regulated"},
      {"measurement": "level of both MMP-2 and MMP-3 mRNAs in PMA-stimulated cells", "setting": "[1]; [2]", "result": "decreased"},
      {"measurement": "MMP-2, MMP-3, MMP-10, MMP-13, and TIMP-1 expression", "setting": "[1]; Caco-2, 2.5 mM of IP6, 6 and 12 h", "result": "significant decrease"}
    ]},
    {"smiles": "Oc1ccc2ccccc2c1SSc1c(O)ccc2ccccc12", "note": "[IPA3]", "values": [
      {"measurement": "insulin-stimulated associations of p41ARC, N-WASP, cortactin and actin", "setting": "PAK1", "result": "ablated"}
    ]},
    {"smiles": "COc1cc(/C=C/C(=O)CC(=O)/C=C/c2ccc(O)c(OC)c2)ccc1O", "note": "[curcumin, (1E,6E)-1,7-Bis(4-hydroxy-3-methoxyphenyl)hepta-1,6-diene-3,5-dione]", "values": [
      {"measurement": "TSC1/2 interaction", "setting": "mTORC1", "result": "did not alter"},
      {"measurement": "raptor-mTOR association", "setting": "mTORC1; leading to inhibition of mTORC1 activity", "result": "able to dissociate raptor from mTOR"},
      {"measurement": "phosphorylation of p70S6kinase 1 (S6K1) and 4E-BP1", "setting": "mTORC1; numerous cancer cell lines", "result": "inhibits"}
    ]}
  ]
}
